Source: patent US6815447B2, “N-type calcium channel antagonists for the treatment of pain” (Astrazeneca AB, priority 2000, dated 2004)

Molecular target: N-type calcium channel (Homo sapiens, UniProt Q00975)
Test: N-channel FLIPR assay (inhibition of K+-evoked calcium flux in neuronally differentiated IMR32 cells)
Type: cell-based
Conditions: 80 mM K+ stimulus, read-out: IC50 for the N-type calcium channel, as measured by the FLIPR assay

Chain of N-type calcium channel (Q00975 whole entry): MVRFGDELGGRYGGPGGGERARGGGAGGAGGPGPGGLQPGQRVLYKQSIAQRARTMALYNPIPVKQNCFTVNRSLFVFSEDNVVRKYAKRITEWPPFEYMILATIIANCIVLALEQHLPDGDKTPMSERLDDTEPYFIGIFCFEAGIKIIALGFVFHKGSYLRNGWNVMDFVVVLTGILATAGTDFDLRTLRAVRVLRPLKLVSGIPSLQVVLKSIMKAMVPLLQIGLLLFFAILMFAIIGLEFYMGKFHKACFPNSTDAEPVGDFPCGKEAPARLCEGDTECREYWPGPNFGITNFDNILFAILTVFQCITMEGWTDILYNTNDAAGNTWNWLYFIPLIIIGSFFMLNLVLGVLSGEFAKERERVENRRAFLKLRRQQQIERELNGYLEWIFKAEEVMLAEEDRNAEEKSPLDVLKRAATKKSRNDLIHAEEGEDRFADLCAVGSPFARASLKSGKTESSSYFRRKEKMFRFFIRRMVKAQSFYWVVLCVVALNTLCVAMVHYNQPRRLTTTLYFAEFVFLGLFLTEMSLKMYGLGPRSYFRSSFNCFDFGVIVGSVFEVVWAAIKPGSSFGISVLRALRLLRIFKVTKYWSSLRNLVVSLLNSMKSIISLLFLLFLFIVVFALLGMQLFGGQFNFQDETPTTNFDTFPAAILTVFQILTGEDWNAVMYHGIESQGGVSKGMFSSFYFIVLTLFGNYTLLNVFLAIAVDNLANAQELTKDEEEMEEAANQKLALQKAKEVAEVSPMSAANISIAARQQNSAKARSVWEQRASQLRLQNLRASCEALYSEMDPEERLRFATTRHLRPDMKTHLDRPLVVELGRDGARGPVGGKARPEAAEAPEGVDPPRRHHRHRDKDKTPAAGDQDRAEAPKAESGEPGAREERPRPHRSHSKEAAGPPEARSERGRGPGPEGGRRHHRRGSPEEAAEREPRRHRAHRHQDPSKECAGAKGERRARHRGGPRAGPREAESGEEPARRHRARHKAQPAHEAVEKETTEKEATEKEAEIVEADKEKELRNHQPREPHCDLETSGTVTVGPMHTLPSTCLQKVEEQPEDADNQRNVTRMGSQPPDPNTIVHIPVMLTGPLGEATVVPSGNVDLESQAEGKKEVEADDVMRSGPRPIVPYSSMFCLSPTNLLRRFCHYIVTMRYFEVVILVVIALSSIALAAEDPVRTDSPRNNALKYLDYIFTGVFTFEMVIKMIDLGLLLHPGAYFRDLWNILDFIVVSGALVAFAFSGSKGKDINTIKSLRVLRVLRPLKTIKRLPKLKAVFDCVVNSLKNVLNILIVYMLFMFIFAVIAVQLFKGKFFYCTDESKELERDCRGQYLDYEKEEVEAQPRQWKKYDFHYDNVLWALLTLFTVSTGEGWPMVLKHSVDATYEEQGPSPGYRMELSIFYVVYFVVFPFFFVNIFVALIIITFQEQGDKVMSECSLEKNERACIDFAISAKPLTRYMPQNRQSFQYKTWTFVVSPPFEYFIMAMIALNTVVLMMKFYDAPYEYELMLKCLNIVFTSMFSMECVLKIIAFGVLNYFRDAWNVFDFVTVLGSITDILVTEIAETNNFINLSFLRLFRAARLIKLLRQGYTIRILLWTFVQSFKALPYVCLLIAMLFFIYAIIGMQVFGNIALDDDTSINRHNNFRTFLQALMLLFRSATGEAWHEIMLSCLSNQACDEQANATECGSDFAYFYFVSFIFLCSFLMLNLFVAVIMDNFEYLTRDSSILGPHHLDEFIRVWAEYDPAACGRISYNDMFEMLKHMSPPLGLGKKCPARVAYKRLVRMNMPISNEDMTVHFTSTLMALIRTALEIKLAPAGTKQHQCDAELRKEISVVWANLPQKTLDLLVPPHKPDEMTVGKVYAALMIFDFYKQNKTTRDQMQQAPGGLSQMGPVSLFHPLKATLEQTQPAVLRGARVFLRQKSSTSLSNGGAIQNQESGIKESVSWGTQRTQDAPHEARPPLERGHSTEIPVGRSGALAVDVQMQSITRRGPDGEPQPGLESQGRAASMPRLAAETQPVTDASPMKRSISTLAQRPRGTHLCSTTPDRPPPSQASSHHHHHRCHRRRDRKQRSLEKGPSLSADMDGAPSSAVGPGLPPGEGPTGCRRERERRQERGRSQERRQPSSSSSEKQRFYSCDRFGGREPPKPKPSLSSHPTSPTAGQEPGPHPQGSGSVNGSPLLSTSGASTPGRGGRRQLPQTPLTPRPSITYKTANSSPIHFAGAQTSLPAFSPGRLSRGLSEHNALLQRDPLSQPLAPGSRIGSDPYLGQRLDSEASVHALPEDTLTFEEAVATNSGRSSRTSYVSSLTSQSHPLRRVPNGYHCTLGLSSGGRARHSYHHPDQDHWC
Chain of N-type calcium channel (P54284 whole entry partner): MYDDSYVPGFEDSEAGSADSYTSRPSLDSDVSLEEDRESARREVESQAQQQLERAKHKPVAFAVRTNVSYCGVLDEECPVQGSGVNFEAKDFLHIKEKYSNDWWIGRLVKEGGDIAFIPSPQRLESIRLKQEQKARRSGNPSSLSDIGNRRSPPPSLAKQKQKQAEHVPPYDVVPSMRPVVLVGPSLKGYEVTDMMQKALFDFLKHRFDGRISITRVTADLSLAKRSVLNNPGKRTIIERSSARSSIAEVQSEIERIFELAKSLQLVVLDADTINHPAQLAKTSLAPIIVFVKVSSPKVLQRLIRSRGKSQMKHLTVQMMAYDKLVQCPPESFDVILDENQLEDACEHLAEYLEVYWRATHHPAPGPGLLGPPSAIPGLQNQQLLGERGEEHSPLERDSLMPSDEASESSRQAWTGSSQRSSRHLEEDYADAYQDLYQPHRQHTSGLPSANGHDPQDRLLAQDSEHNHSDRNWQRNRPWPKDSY
Chain of N-type calcium channel (P54289 25-956 partner limits assumed): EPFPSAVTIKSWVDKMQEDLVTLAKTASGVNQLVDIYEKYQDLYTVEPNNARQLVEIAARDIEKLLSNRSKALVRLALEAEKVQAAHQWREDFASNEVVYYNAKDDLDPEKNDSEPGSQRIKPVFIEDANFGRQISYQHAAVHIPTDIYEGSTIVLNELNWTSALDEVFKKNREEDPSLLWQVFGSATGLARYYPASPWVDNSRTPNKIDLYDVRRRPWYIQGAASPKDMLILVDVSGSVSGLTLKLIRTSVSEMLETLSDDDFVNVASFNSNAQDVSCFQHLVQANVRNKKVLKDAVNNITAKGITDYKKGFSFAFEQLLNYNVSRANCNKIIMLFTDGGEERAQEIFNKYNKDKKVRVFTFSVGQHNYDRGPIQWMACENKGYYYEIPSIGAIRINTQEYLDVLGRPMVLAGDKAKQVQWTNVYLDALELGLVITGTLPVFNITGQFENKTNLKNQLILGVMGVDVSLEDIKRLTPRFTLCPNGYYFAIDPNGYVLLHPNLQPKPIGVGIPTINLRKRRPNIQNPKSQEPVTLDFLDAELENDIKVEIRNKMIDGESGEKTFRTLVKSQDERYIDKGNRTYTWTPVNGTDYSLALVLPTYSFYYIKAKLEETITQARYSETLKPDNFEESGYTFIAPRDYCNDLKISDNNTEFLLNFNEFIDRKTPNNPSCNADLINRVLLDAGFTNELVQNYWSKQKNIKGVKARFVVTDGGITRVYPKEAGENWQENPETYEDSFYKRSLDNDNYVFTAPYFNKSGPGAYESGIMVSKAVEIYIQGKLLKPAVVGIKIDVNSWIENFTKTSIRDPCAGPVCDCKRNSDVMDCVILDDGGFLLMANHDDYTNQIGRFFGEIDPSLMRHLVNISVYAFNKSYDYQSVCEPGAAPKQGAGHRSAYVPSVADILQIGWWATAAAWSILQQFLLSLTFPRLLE
Chain of N-type calcium channel (P54289 957-1103 partner limits assumed): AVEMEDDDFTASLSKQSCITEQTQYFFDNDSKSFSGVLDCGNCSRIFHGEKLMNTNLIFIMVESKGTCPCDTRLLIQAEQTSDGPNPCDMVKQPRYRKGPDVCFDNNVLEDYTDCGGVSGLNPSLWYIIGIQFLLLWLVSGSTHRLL

IC50 [µM] | SMILES
2.37 | Cc1cc(N)c2cc(Nc3cc(-c4ccccc4F)nc(N)n3)ccc2n1 [Example 66, N6-[2-Amino-6-(2-fluoro-phenyl)-pyrimidin-4-yl]-2-methyl-quinoline-4,6-diamine]
10.5 | COc1ccccc1-c1cc(Nc2ccc3nc(-c4ccccc4)cc(N)c3c2)nc(N)n1 [Example 75, N6-[2-Amino-6-(2-methoxy-phenyl)-pyrimidin-4-yl]-2-phenyl-quinoline-4,6-diamine]
3.57 | Nc1nc(Nc2ccc3nc(-c4ccccc4)cc(N)c3c2)cc(C(F)(F)F)n1 [Example 4, N6-(2-Amino-6-trifluoromethyl-pyrimidin-4-yl)-2-phenyl-quinoline-4,6-diamine]
3.56 | Cc1cc(N)c2cc(Nc3cc(-c4cccc(F)c4)nc(N)n3)ccc2n1 [Example 74, N6-[2-Amino-6-(3-fluoro-phenyl)-pyrimidin-4-yl]-2-methyl-quinoline-4,6-diamine]
